Results from patent publication US9546153B2, “Bicyclic heterocycle substituted pyridyl compounds useful as kinase modulators” (BRISTOL-MYERS SQUIBB COMPANY, priority 2012, dated 2017).
Read-outs that look alike come from different tables or passages of the source.

What was measured:
IRAK4 = IRAK4 (Homo sapiens (Human), UniProt Q9NWZ3); test: IRAK4 Inhibition Assay; type: biochemical; settings: ATP 500 μM; IRAK4 0.6 nM; 60 min at room temperature
Protocol: The assays were performed in U-bottom 384-well plates. […] The reaction was initiated by the combination of IRAK4 with substrates and test compounds. The reaction was incubated at room temperature for 60 min. and terminated by adding 45 μL of 35 mM EDTA to each sample. The reaction mixture was analyzed on the Caliper LABCHIP® 3000 (Caliper, Hopkinton, Mass.) by electrophoretic separation of the fluorescent substrate and phosphorylated product.

[1] = test system: TLR2 induced IL-6 in peripheral blood mononuclear cells (PBMCs); test: PBMC TLR2 Induced IL-6 Assay; type: cell-based, human; settings: human PBMCs, 10 μg/ml lipoteichoic acid for 5 hours, IL-6 by ELISA, value without asterisk, read-out: Cell IC50
Procedure, shortened: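 Human PBMCs (250000 cells/well) in RPMI with 10% heat-inactivated FCS pre-treated with compound for 30 min at 37° C, then stimulated 5 h with 10 μg/ml lipoteichoic acid. Supernatant IL-6 measured by ELISA and reported as IC50 or EC50.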

Chain of IRAK4 (Q9NWZ3 whole entry, species assumed): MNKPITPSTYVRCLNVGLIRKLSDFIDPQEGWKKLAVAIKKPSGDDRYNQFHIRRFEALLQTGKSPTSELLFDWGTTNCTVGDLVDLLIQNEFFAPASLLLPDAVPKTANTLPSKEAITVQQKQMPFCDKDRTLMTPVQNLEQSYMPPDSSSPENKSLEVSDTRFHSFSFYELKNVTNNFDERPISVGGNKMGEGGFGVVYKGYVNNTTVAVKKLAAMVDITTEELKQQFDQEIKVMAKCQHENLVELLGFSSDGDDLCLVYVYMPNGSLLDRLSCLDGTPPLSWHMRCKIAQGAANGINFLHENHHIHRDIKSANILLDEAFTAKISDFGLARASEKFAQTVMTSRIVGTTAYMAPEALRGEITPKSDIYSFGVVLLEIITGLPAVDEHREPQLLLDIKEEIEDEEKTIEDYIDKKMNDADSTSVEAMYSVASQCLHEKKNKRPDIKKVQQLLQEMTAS

SMILES | IC50 (IRAK4) [µM] | IC50 ([1]; Homo sapiens, PBMC, 5 h) [µM] | IC50 [1] [µM]
Cc1cc2nc(Nc3cc(NC4CCC(F)C4)c(C(=O)NC[C@@H](F)C(C)(C)O)cn3)ccn2n1 (stereo partly drawn) [Example 267] | 0.0074 | 0.468 | 
Cc1cc2nc(Nc3cc(NC4CCC(F)C4)c(C(=O)NC[C@@H](F)C(C)(C)O)cn3)ccn2n1 (stereo partly drawn) [Example 268] | 0.0061 |  | 0.376
CC(C)(O)[C@H](F)CNC(=O)c1cnc(Nc2ccc3nccn3n2)cc1NC1CCC1 [Example 272] | 0.0048 | 0.175 | 
CC(C)(O)[C@H](F)CNC(=O)c1cnc(Nc2ccc3nccn3n2)cc1NC1CCCC1F (stereo partly drawn) [Example 273] | 0.0024 | 0.764 | 
CC(C)(O)[C@H](F)CNC(=O)c1cnc(Nc2ccc3nccn3n2)cc1NC1CCCC1F (stereo partly drawn) [Example 274] | 0.0028 |  | 0.712
CC(C)(C)CNc1cc(Nc2ccc3nccn3n2)ncc1C(=O)NC[C@@H](F)C(C)(C)O [Example 275] | 0.0031 | 0.335 | 
Cc1cnc2ccc(Nc3cc(NC(C)C)c(C(=O)NC[C@@H](F)C(C)(C)O)cn3)nn12 [Example 277] | 0.0036 | 0.18 | 
Cc1cn2nc(Nc3cc(NC4CC4)c(C(=O)NC[C@@H](F)C(C)(C)O)cn3)ccc2n1 [Example 278] | 0.0108 | 0.618 | 
CC(C)(O)[C@H](F)CNC(=O)c1cnc(Nc2ccc3nccn3n2)cc1NC1CCOCC1 [Example 279] | 0.004 | 0.292 | 
CC(C)(O)[C@H](F)CNC(=O)c1cnc(Nc2ccc3nccn3n2)cc1NC1CCC(F)C1 (stereo partly drawn) [Example 280] | 0.0027 |  | 0.127
CC(C)(O)[C@H](F)CNC(=O)c1cnc(Nc2ccc3nccn3n2)cc1NC1CCC(F)C1 (stereo partly drawn) [Example 281] | 0.0012 |  | 0.354
O=C(NC1CCC(O)CC1)c1cnc(Nc2ccc3nccn3n2)cc1NC1CCC1 (stereo not drawn) [Example 282] | 0.0114 | 0.458 | 
CC(C)(O)C(F)(F)CNC(=O)c1cnc(Nc2ccc3nccn3n2)cc1NC1CC1 [Example 283] | 0.0096 | 0.417 | 
CC(C)(O)[C@H](F)CNC(=O)c1cnc(Nc2ccc3nccn3n2)cc1NC1CCOCC1F (stereo partly drawn) [Example 285] | 0.0071 | 0.512 | 
CC(C)Nc1cc(Nc2ccn3nccc3c2)ncc1C(=O)NC[C@@H](F)C(C)(C)O [Example 286] | 0.0052 | 0.415 | 
CC(C)(O)[C@H](F)CNC(=O)c1cnc(Nc2ccn3nccc3c2)cc1NC1CCC(F)C1 (stereo partly drawn) [Example 287] | 0.0062 | 0.674 | 
CC(C)Nc1cc(Nc2ccn3ncc(F)c3c2)ncc1C(=O)NC[C@@H](F)C(C)(C)O [Example 288] | 0.001 | 0.134 | 
CC(C)CNc1cc(Nc2ccn3nccc3c2)ncc1C(=O)NC[C@@H](F)C(C)(C)O [Example 289] | 0.0061 | 0.502 | 
CC(C)(O)[C@H](F)CNC(=O)c1cnc(Nc2ccn3nccc3c2)cc1NCC1CC1 [Example 290] | 0.0114 | 0.607 | 
CC(C)(C)Nc1cc(Nc2ccn3nccc3c2)ncc1C(=O)NC[C@@H](F)C(C)(C)O [Example 291] | 0.007 | 0.283 | 
CC(C)(O)[C@H](F)CNC(=O)c1cnc(Nc2ccn3nccc3c2)cc1NCCC1CC1 [Example 292] | 0.007 | 0.427 | 
CC(C)(O)[C@H](F)CNC(=O)c1cnc(Nc2ccn3nccc3c2)cc1NC1CCC(F)(F)C1 (stereo partly drawn) [Example 293] | 0.0018 | 0.31 | 
CC(C)(F)CNc1cc(Nc2ccn3nccc3c2)ncc1C(=O)NC[C@@H](F)C(C)(C)O [Example 294] | 0.0047 | 0.416 | 
CC(C)Nc1cc(Nc2ccn3ncc(Cl)c3c2)ncc1C(=O)NC[C@@H](F)C(C)(C)O [Example 295] | 0.0048 | 0.446 | 
CC(C)(O)[C@H](F)CNC(=O)c1cnc(Nc2ccn3nccc3c2)cc1NC1CC(F)C1 (stereo partly drawn) [Example 296] | 0.0071 | 0.384 | 
CC(C)(O)[C@H](F)CNC(=O)c1cnc(Nc2ccn3nccc3c2)cc1NC1CCCC1(F)F (stereo partly drawn) [Example 297] | 0.0057 | 0.535 | 
CC(C)(O)[C@H](F)CNC(=O)c1cnc(Nc2ccn3nccc3c2)cc1NC1CCOCC1F (stereo partly drawn) [Example 298] | 0.0079 | 0.596 | 
